Laboratory results reported in patent US8134015B2, “Compound inhibiting in vivo phosphorous transport and medicine containing the same” (Kyowa Hakko Kirin Co., Ltd., priority 2003, dated 2012).

biological target: T1, rat NaPi-2b (Rattus norvegicus, UniProt Q9JJ09); assay: Sodium-dependent phosphate uptake of Xenopus oocytes which expressed NaPi-2b (32P); type: cell-based; conditions: Xenopus oocytes expressing rat NaPi-2b, 32P radioactive phosphorus; read-out: IC50 (phosphate uptake inhibitory activity)
T1 construct: expressed in transfected cells; host or cells: Xenopus oocytes injected with cRNA
T1 sequence (Q9JJ09 1-695): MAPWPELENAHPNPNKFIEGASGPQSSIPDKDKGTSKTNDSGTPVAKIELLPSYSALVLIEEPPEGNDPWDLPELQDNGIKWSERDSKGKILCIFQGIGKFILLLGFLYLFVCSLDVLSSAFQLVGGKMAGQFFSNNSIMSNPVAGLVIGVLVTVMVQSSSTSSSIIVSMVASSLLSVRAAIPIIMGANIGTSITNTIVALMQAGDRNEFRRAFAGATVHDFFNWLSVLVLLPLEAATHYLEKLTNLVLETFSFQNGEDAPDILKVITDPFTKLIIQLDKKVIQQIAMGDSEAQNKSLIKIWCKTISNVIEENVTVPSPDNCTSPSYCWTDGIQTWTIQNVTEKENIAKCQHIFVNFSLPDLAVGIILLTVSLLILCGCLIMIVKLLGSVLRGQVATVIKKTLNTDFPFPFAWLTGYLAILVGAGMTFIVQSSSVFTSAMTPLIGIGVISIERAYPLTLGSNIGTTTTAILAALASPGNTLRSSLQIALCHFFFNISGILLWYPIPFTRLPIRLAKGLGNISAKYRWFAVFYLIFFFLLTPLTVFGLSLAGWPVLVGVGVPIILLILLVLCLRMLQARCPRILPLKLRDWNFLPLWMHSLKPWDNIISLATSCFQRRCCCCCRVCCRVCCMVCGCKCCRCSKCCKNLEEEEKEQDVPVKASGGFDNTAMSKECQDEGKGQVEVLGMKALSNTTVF
Summary of the method: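 Percent inhibition at 300 μM and 100 μM comes from the same inhibition curve of 32P uptake. Assay used oocytes expressing rat NaPi-2b after 2 days of culture.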

SMILES	IC50 [nM]
O=C(Nc1ccc(Br)cc1C(=O)N/N=C/c1cccc(F)c1)c1ccc(CSc2ccncc2)cc1 [Compound 255, N-[4-Bromo-2-(3-fluoro-benzylidene-hydrazinocarbonyl)-phenyl]-4-(pyridin-4-ylsulfanylmethyl)-benzamide]	3540
O=C(Nc1ccc(Br)cc1C(=O)N/N=C/c1ccc(F)cc1)c1ccc(CSc2ccncc2)cc1 [Compound 256, N-[4-Bromo-2-(4-fluoro-benzylidene-hydrazinocarbonyl)-phenyl]-4-(pyridin-4-ylsulfanylmethyl)-benzamide]	< 10000
Cc1cccc(/C=N/NC(=O)c2cc(Br)ccc2NC(=O)c2ccc(CSc3ccncc3)cc2)c1 [Compound 257, N-[4-Bromo-2-(3-methyl-benzylidene-hydrazinocarbonyl)-phenyl]-4-(pyridin-4-ylsulfanylmethyl)-benzamide]	< 3000
Cc1ccc(/C=N/NC(=O)c2cc(Br)ccc2NC(=O)c2ccc(CSc3ccncc3)cc2)cc1 [Compound 258, N-[4-Bromo-2-(4-methyl-benzylidene-hydrazinocarbonyl)-phenyl]-4-(pyridin-4-ylsulfanylmethyl)-benzamide]	< 3000
Cc1ccc(/C=N/NC(=O)c2cc(Br)ccc2NC(=O)c2ccc(CSc3ccncc3)cc2)cc1C [Compound 259, N-[4-Bromo-2-(3,4-dimethyl-benzylidene-hydrazinocarbonyl)-phenyl]-4-(pyridin-4-ylsulfanylmethyl)-benzamide]	< 3000
O=C(Nc1ccc(Br)cc1C(=O)N/N=C/c1cccc(F)c1)c1ccc(CSCCO)cc1 [Compound 261, N-[4-Bromo-2-(3-fluoro-benzylidene-hydrazinocarbonyl)-phenyl]-4-(2-hydroxy-ethylsulfanylmethyl)-benzamide]	< 3000
Cc1cccc(/C=N/NC(=O)c2cc(Br)ccc2NC(=O)c2ccc(CSCCO)cc2)c1 [Compound 263, N-[4-Bromo-2-(3-methyl-benzylidene-hydrazinocarbonyl)-phenyl]-4-(2-hydroxy-ethylsulfanylmethyl)-benzamide]	< 1000
Cc1ccc(/C=N/NC(=O)c2cc(Br)ccc2NC(=O)c2ccc(CSCCO)cc2)cc1C [Compound 265, N-[4-Bromo-2-(3,4-dimethyl-benzylidene-hydrazinocarbonyl)-phenyl]-4-(2-hydroxy-ethylsulfanylmethyl)-benzamide]	< 1000
O=C(Nc1ccc(Br)cc1C(=O)N/N=C/c1ccc(Cl)c(C(F)(F)F)c1)c1ccc(CSCCO)cc1 [Compound 266, N-[4-Bromo-2-(4-chloro-3-trifluoromethyl-benzylidene-hydrazinocarbonyl)-phenyl]-4-(2-hydroxy-ethylsulfanylmethyl)-benzamide]	< 1000
Cc1ccc(/C=N/NC(=O)c2cc(Br)ccc2NC(=O)c2cccc(CSc3nc[nH]n3)c2)cc1C [Compound 267, N-[4-Bromo-2-(3,4-dimethyl-benzylidene-hydrazinocarbonyl)-phenyl]-3-(1H-[1,2,4]triazol-3-ylsulfanylmethyl)-benzamide]	430
Cc1ccc(/C=N/NC(=O)c2cc(Br)ccc2NC(=O)c2cccc(CSc3nc[nH]n3)c2)cc1 [Compound 268, N-[4-Bromo-2-(4-methyl-benzylidene-hydrazinocarbonyl)-phenyl]-3-(1H-[1,2,4]triazol-3-ylsulfanylmethyl)-benzamide]	1020
Cc1cccc(/C=N/NC(=O)c2cc(Br)ccc2NC(=O)c2cccc(CSc3nc[nH]n3)c2)c1 [Compound 269, N-[4-Bromo-2-(3-methyl-benzylidene-hydrazinocarbonyl)-phenyl]-3-(1H-[1,2,4]triazol-3-ylsulfanylmethyl)-benzamide]	2190
O=C(Nc1ccc(Br)cc1C(=O)N/N=C/c1ccc(F)cc1)c1cccc(CSc2nc[nH]n2)c1 [Compound 270, N-[4-Bromo-2-(4-fluoro-benzylidene-hydrazinocarbonyl)-phenyl]-3-(1H-[1,2,4]triazol-3-ylsulfanylmethyl)-benzamide]	5040
O=C(Nc1ccc(Br)cc1C(=O)N/N=C/c1cccc(F)c1)c1cccc(CSc2nc[nH]n2)c1 [Compound 271, N-[4-Bromo-2-(3-fluoro-benzylidene-hydrazinocarbonyl)-phenyl]-3-(1H-[1,2,4]triazol-3-ylsulfanylmethyl)-benzamide]	210
O=C(Nc1ccc(Br)cc1C(=O)N/N=C/c1ccc(Cl)c(C(F)(F)F)c1)c1cccc(CSc2nc[nH]n2)c1 [Compound 272, N-[4-Bromo-2-(4-chloro-3-trifluoromethyl-benzylidene-hydrazinocarbonyl)-phenyl]-3-(1H-[1,2,4]triazol-3-ylsulfanylmethyl)-benzamide]	470
Cc1ccc(/C=N/NC(=O)c2cc(Br)ccc2NC(=O)c2ccc(CSCCCO)cc2)cc1C [Compound 273, N-[4-Bromo-2-(3,4-dimethyl-benzylidene-hydrazinocarbonyl)-phenyl]-4-(3-hydroxy-propylsulfanylmethyl)-benzamide]	150
Cc1ccc(/C=N/NC(=O)c2cc(Br)ccc2NC(=O)c2ccc(CSCCCO)cc2)cc1 [Compound 274, N-[4-Bromo-2-(4-methyl-benzylidene-hydrazinocarbonyl)-phenyl]-4-(3-hydroxy-propylsulfanylmethyl)-benzamide]	1040
Cc1cccc(/C=N/NC(=O)c2cc(Br)ccc2NC(=O)c2ccc(CSCCCO)cc2)c1 [Compound 275, N-[4-Bromo-2-(3-methyl-benzylidene-hydrazinocarbonyl)-phenyl]-4-(3-hydroxy-propylsulfanylmethyl)-benzamide]	1730
O=C(Nc1ccc(Br)cc1C(=O)N/N=C/c1ccc(F)cc1)c1ccc(CSCCCO)cc1 [Compound 276, N-[4-Bromo-2-(4-fluoro-benzylidene-hydrazinocarbonyl)-phenyl]-4-(3-hydroxy-propylsulfanylmethyl)-benzamide]	6200
O=C(Nc1ccc(Br)cc1C(=O)N/N=C/c1cccc(F)c1)c1ccc(CSCCCO)cc1 [Compound 277, N-[4-Bromo-2-(3-fluoro-benzylidene-hydrazinocarbonyl)-phenyl]-4-(3-hydroxy-propylsulfanylmethyl)-benzamide]	1600
O=C(Nc1ccc(Br)cc1C(=O)N/N=C/c1ccc(Cl)c(C(F)(F)F)c1)c1ccc(CSCCCO)cc1 [Compound 278, N-[4-Bromo-2-(4-chloro-3-trifluoromethyl-benzylidene-hydrazinocarbonyl)-phenyl]-4-(3-hydroxy-propylsulfanylmethyl)-benzamide]	160
Cc1ccc(/C=N/NC(=O)c2cc(Br)ccc2NC(=O)c2cccc(CNCCN3CCOCC3)c2)cc1C [Compound 279, N-[4-Bromo-2-(3,4-dimethyl-benzylidene-hydrazinocarbonyl)-phenyl]-3-[(2-morpholin-4-yl-ethylamino)-methyl]-benzamide]	2310
CCN(CC)CCN(C)Cc1ccc(C(=O)Nc2ccc(Br)cc2C(=O)N/N=C/c2ccc(C)c(C)c2)cc1 [Compound 280, N-[4-Bromo-2-(3,4-dimethyl-benzylidene-hydrazinocarbonyl)-phenyl]-4-{[(2-diethylamino-ethyl)-methyl-amino]-methyl}-benzamide]	780

same assay, conditions: phosphate uptake, oocytes expressing rat NaPi-2b; 300 μM, determined from inhibition curve

SMILES	inhibition at 300 µM [%]
COc1ccc(C(=O)Nc2ccccc2C(=O)N/N=C/c2ccccn2)cc1OC [Compound 245]	31.7
COc1ccc(C(=O)Nc2ccc(Cl)cc2C(=O)N/N=C/c2cccc(C)n2)cc1OC [Compound 246, N-[4-Chloro-2-(6-methyl-pyridin-2-ylmethylene-hydrazinocarbonyl)-phenyl]-3,4-dimethoxy-benzamide]	32.6
COc1ccc(C(=O)Nc2ccccc2C(=O)N/N=C/c2cccc(C)n2)cc1OC [Compound 247, 3,4-Dimethoxy-N-[2-(6-methyl-pyridin-2-ylmethylene-hydrazinocarbonyl)-phenyl]-benzamide]	34.8
Cc1cccc(C=NNC(=O)c2cc(Br)ccc2NC(=O)c2ccc(C(C)(C)C)cc2)c1 [Compound 248, N-[4-Bromo-2-(3-methyl-benzylidene-hydrazinocarbonyl)-phenyl]-4-tert-butyl-benzamide]	30.3
C/C(=N\NC(=O)c1ccccc1NC(=O)c1ccncc1)c1cccc(C)c1 [Compound 249, N-[2-(1-m-Toluyl-ethylidene-hydrazinocarbonyl)-phenyl]-isonicotinamide]	41.6
C/C(=N\NC(=O)c1cc(Cl)ccc1NC(=O)c1cccnc1)c1cccc(C)c1 [Compound 250, N-[4-Chloro-2-(1-m-toluyl-ethylidene-hydrazinocarbonyl)-phenyl]-nicotinamide]	37.9
C/C(=N\NC(=O)c1ccccc1NC(=O)c1cccnc1)c1ccc(C)cc1 [Compound 251, N-[2-(1-p-Toluyl-ethylidene-hydrazinocarbonyl)-phenyl]-nicotinamide]	31.2
